Experiments:
[1] = entering the CNS / not entering the CNS; ref Drugbank [36]; cited from earlier work
[2] = Normal-phase TLC on silica gel 60 F254 (Rf); assay type: physicochemical; conditions: water:methanol:acetonitrile 60:20:20, ammonium acetate pH 7.4
Procedure: The purity of the isolated substances was checked by TLC chromatography and densitometric scanning.
APIs were subjected to chromatographic in column (HPLC) and thin layer (TLC) formats. TLC chromatography was carried out on 20 cm × 20 cm glass plates by Merck, covered with silica gel and the addition of a fluorescent indicator. Merck TLC silica gel 60 F254 was used for the normal phase (NP). In the reverse phase (RP), RP-2 silanized plates were used (Merck TLC Silica gel 60 RP-2 F254, silanized). The mobile phase was buffered with ammonium acetate to pH 7.4 (LACH-NER, ammonium acetate).
Plates, after developing the chromatograms, were scanned using a densitometer (Desaga CD 60) with an analytical wavelength selected individually for drugs. The values of Rf (molecular descriptors: NP, RP) were determined.

[3] = Reversed-phase TLC on RP-2 silanized plates (Rf); assay type: physicochemical; conditions: silica gel 60 RP-2 F254 silanized; water:methanol:acetonitrile 60:20:20, ammonium acetate pH 7.4
[4] = plasma protein binding, given as fraction; ref Drugbank; cited from earlier work
[5] = HPLC on IAM (immobilized artificial membrane) column, retention factor; assay type: physicochemical; conditions: IAM.PC.DD.2 column; for k(IAM) retention factor: 10 mM phosphate buffer pH 7.4:acetonitrile 80:20; for logkIAM: logarithm of retention factor, phosphate buffer pH 7.4:acetonitrile 80:20
Procedure: Chromatographic data also came from an experiment with a HPLC IAM (immobilized artificial membrane) column (Regis Technologies Inc.: IAM.PC.DD.2, 10 µm; 4.6 mm × 10 mm). The column contains a standard membrane consisting of a phospholipid bilayer. Organic solvents (acetonitrile and methanol) and water (J.T. Baker HPLC) were used in HPLC. Sigma phosphate buffered saline tablets were used to prepare the phosphate buffer. The mobile phase was a mixture of 10 mM phosphate buffer at pH 7.4 and acetonitrile in the ratio of 80:20 (v/v) [35]. The mobile phase flow was set at 0.5 mL/min; detection was carried out with a UV–Vis detector. The obtained values of the retention factor (k IAM) were transformed into a logarithmic form and entered into the statistical analysis (descriptor: log k IAM).

| SMILES | CNS+/- [1] | NP (Rf from NP TLC plate) [2] | RP (Rf from RP-2 TLC plate) [3] | PB (protein binding) [4] | k(IAM) retention factor [5] | logkIAM [5] |
| --- | --- | --- | --- | --- | --- | --- |
| CC(=O)Oc1ccccc1C(=O)O [acetylsalicylic acid] | 1 | 0.89 | 0.98 | 0.995 | 0.03 | -1.52 |
| COc1ccc(CCN2CCC(Nc3nc4ccccc4n3Cc3ccc(F)cc3)CC2)cc1 [astemizol] | 1 | 0.62 | 0.65 | 0.967 | 26.27 | 1.42 |
| CC[C@H]1OC(=O)[C@H](C)[C@@H](O[C@H]2C[C@@](C)(OC)[C@@H](O)[C@H](C)O2)[C@H](C)[C@@H](O[C@@H]2O[C@H](C)C[C@H](N(C)C)[C@H]2O)[C@](C)(O)C[C@@H](C)CN(C)[C@H](C)[C@@H](O)[C@]1(C)O [azithromycin] | 0 | 0.63 | 0.24 | 0.29 | 0.06 | -1.20 |
| CC(C)NCC(O)COc1ccc(COCCOC(C)C)cc1 (stereo not drawn) [bisoprolol] | 0 | 0.67 | 0.57 | 0.3 | 6.74 | 0.83 |
| O=C1CN=C(c2ccccn2)c2cc(Br)ccc2N1 [bromazepam] | 1 | 0.87 | 0.83 | 0.7 | 2.21 | 0.34 |
| CCCCN1CCCCC1C(=O)Nc1c(C)cccc1C (stereo not drawn) [bupivacaine] | 1 | 0.67 | 0.74 | 0.95 | – | – |
| COc1ccccc1OCCNCC(O)COc1cccc2[nH]c3ccccc3c12 (stereo not drawn) [carvedilol] | 0 | 0.73 | – | 0.98 | – | – |
| CO/N=C(\C(=O)N[C@@H]1C(=O)N2C(C(=O)O)=C(COC(N)=O)CS[C@H]12)c1ccco1 [cefuroxime] | 0 | 0.97 | 0.88 | 0.5 | 1.69 | 0.23 |
| Cc1ccc(-c2cc(C(F)(F)F)nn2-c2ccc(S(N)(=O)=O)cc2)cc1 [celecoxib] | 1 | 0.98 | 0.75 | 0.97 | 50.01 | 1.70 |
| NS(=O)(=O)c1cc(C2(O)NC(=O)c3ccccc32)ccc1Cl (stereo not drawn) [chlortalidone] | 1 | 0.96 | – | 0.75 | 1.32 | 0.12 |
| CN/C(=N/CCSCc1nc[nH]c1C)NC#N [cimetidine] | 0 | 0.64 | 0.88 | 0.17 | 0.26 | -0.58 |
| COc1cc(N)c(Cl)cc1C(=O)NC1CCN(CCCOc2ccc(F)cc2)CC1OC (stereo not drawn) [cisapride] | 1 | 0.64 | 0.65 | 0.975 | 57.99 | 1.76 |
| CN1C(=O)CC(=O)N(c2ccccc2)c2cc(Cl)ccc21 [clobazam] | 1 | 0.95 | 0.79 | 0.85 | 2.58 | 0.41 |
| Clc1cccc(Cl)c1N=C1NCCN1 [clonidine] | 1 | 0.49 | 0.73 | 0.3 | 2.83 | 0.45 |
| CN1CCC(=C2c3ccccc3C=Cc3ccccc32)CC1 [cyproheptadine] | 1 | 0.45 | 0.45 | 0.975 | 23.79 | 1.38 |
| C[C@H]1c2cccc(O)c2C(=O)C2=C(O)[C@]3(O)C(=O)C(C(N)=O)=C(O)[C@@H](N(C)C)[C@@H]3[C@@H](O)[C@@H]21 [doxycycline] | 0 | 0.06 | 0.08 | 0.9 | 1.76 | 0.24 |
| CCOC(=O)[C@H](CCc1ccccc1)N[C@@H](C)C(=O)N1CCC[C@H]1C(=O)O [enalapril] | 0 | 0.33 | 0.6 | 0.55 | 0.05 | -1.29 |
| OCCOCCN1CCN(C(c2ccccc2)c2ccc(Cl)cc2)CC1 (stereo not drawn) [hydroxyzine] | 1 | 0.55 | – | 0.93 | 13.82 | 1.14 |
| COc1ccc2c(c1)c(CC(=O)O)c(C)n2C(=O)c1ccc(Cl)cc1 [indomethacin] | 1 | – | – | 0.97 | 1.08 | 0.03 |
| CCC(C)n1ncn(-c2ccc(N3CCN(c4ccc(OCC5COC(Cn6cncn6)(c6ccc(Cl)cc6Cl)O5)cc4)CC3)cc2)c1=O (stereo not drawn) [itraconazole] | 0 | 0.96 | 0.86 | 0.998 | – | – |
| O=C(c1ccccc1)c1ccc2n1CCC2C(=O)O (stereo not drawn) [ketorolac] | 1 | 0.92 | 0.96 | 0.99 | – | – |
| CC[C@@H](C(N)=O)N1CCCC1=O [levetiracetam] | 1 | 0.92 | 0.92 | 0.1 | – | – |
| CCC[C@@H]1C[C@@H](C(=O)N[C@@H]([C@H]2O[C@H](SC)[C@H](O)[C@@H](O)[C@H]2O)[C@@H](C)O)N(C)C1 [lincomycin] | 0 | 0.91 | – | 0.7 | – | – |
| O=C1Nc2ccc(Cl)cc2C(c2ccccc2Cl)=NC1O (stereo not drawn) [lorazepam] | 1 | – | – | 0.87 | 9.04 | 0.96 |
| Nc1ccc(O)c(C(=O)O)c1 [mesalazine] | 0 | – | 0.99 | 0.43 | – | – |
| CCOC(=O)C1=C(C)NC(C)=C(C(=O)OC)C1c1cccc([N+](=O)[O-])c1 (stereo not drawn) [nitrendipine] | 0 | 0.97 | 0.86 | 0.99 | – | – |
| NC(=O)N1c2ccccc2CC(=O)c2ccccc21 [oxcarbamazepine] | 1 | 0.91 | 0.91 | 0.4 | – | – |
| CC(C)(C)NC[C@H](O)COc1nsnc1N1CCOCC1 [timolol] | 0 | 0.34 | 0.97 | 0.1 | – | – |
| OCCN1CCN(CC/C=C2/c3ccccc3Sc3ccc(Cl)cc32)CC1 [zuclopenthixol] | 1 | 0.47 | – | 0.985 | 48.73 | 1.69 |
